From patent US20210361549A1, “ANTIPERSPIRANT” (MANDOM CORPORATION, priority 2018, published 2021)

Assays:
[1] = tested on: secretory duct of the sweat gland (whole sweat glands); assay: Test Example 1: time-lapse imaging of isolated whole sweat glands, moving distance of nuclei after pyrocarpin stimulation; format: cell-based, human; conditions: for movement of the secretory duct of the sweat gland: observed in the time-lapse photographed image, antiperspirant contacted with whole sweat glands
Method: As skin tissues, skin tissues which were refrigerated immediately after isolating from living donors and stored at 4° C. for 15 hours were used. The skin tissues were immersed in PBS containing 10 μM staining agent (Neutral Red), to label the sweat glands included in the skin tissues. Next, the dermis of each of the skin tissues including the staining agent was finely cut to obtain dermal segments. Whole sweat glands were collected from the dermal segments by using tweezers under an optical microscope.
The whole sweat glands obtained in Test Example 1(1) were immersed in the staining reagent mixture obtained in Production Example 1 at room temperature (24° C.) for 30 minutes, to stain the whole sweat glands. The stained whole sweat glands were washed with PBS.
The washed whole sweat glands obtained in Test Example 1(2) were allowed to stand on a glass bottom dish under a stereoscopic microscope manufactured by Leica under the trade name of M125. The collagen-containing liquid obtained in Production Example 2 was added dropwise to the whole sweat glands that were allowed to stand on the glass bottom dish. Next, the above-mentioned glass bottom dish was incubated at 37° C. for 5 minutes to gelate the collagen type I-A contained in the collagen-containing liquid placed on the whole sweat glands. Thereafter, 300 μL of PBS was added onto the above-mentioned whole sweat glands so as not to dry the whole sweat glands. Thus, the whole sweat glands were held on the glass bottom dish used as a support with the collagen type I-A so that the position of each of the whole sweat glands was retained, to obtain an observation sample.
While adhesion of the whole sweat glands to the glass bottom dish with the gelated collagen type I-A was confirmed under the stereoscopic microscope, an aliquot of Dulbecco's phosphate buffer [manufactured by Gibco, Catalog No. 14190-144] was added to the glass bottom dish used as a support.
The antiperspirant obtained in Example 1 in an amount of 3 μL was contacted with the whole sweat glands on the glass bottom dish in the observation sample. The observation of the whole sweat glands on the glass bottom dish with the time-lapse imaging was initiated by using a confocal laser scanning microscope for biological uses [inverted microscope manufactured by Olympus Corporation under the trade name of IX-83 equipped with a device manufactured by Olympus Corporation under the trade name of FV 1200]. At that time, the whole sweat glands were visualized by detecting fluorescence derived from the nuclear staining reagent bound to the nuclei and fluorescence derived from the cytoskeleton-staining reagent bound to the cytoskeleton. After 600 seconds passed from the initiation of the observation, 30 μL of the sweat gland-stimulating agent obtained in Production Example 3 was contacted with the whole sweat glands on the glass bottom dish, and thereafter the observation with the time-lapse imaging was continued. […]
Next, five cells were selected from a cell group in the lumen of the secretory duct in the time-lapse photographed image of the whole sweat glands, and five cells were selected from a cell group in the outer periphery of the secretory duct. […] In order to measure a moving distance of the nuclei of the cell, firstly changes (differences) in coordinates between consecutive frames were calculated by using X-coordinate and Y-coordinate of the nuclei of each cell in accordance with the formulae (XI) and (XII): […]

[2] = tested on: armpit sweating of expert panelists; assay: Test Example 3: degree of sweating scored by expert panelists after application to armpit and light exercise; format: in vivo, human; conditions: applied to each armpit of ten expert panelists, light exercise; compared with control sample of Comparative Example 1 (PBS)
Excerpt: The antiperspirant obtained in Example 1 is applied to each armpit of ten expert panelists having the same proficiency in evaluation skill, and then the expert panelists are subjected to a light exercise. Thereafter, each of the expert panelists gives a score of the degree of sweating on the basis of the following criteria for evaluation. In addition, each of the expert panelists gives a score of the degree of sweating in the same manner as in the above except that the control sample of Comparative Example 1 is used in place of the antiperspirant obtained in Example 1. The average of the scores given by the expert panelists is calculated.
0 point: sweat in a large amount.
2 points: slightly sweat.

[3] = tested on: secretory duct of the sweat gland (whole sweat glands); assay: Test Example 2: time-lapse imaging of isolated whole sweat glands, average moving distance of nuclei of secretory duct cells; format: cell-based, human; conditions: antiperspirant as prepared contacted first; stimulating agent of Production Example 4 (10 mM pyrocalpin); five cells; FIG. 3 to FIG. 8
Method: Each of the antiperspirants obtained in Examples 2 to 7 was contacted with the whole sweat glands respectively, and change of the average of moving distances of nuclei of cells of a secretory duct of the sweat gland was examined with passage of time. Whether or not nuclei of cells of the secretory duct of the sweat gland moved was determined based on the results shown in FIG. 3 to FIG. 8, and evaluated in accordance with the following criteria for evaluation. […] The maximum value of the average of moving distances of nuclei of cells of the secretory duct of the sweat gland exceeds 1 μm: the nuclei of cells of the secretory duct of the sweat glands are moved.

Row | Compound | movement of the secretory duct of the sweat gland [1] | average of the scores of the degree of sweating (0 to 4 points) [2] | movement of nuclei of cells of the secretory duct of the sweat gland (maximum of average of moving distances) [3] | other results
1 | CC1(C(=O)O)CCC2(C)CCC3(C)C(=CC(=O)C4C5(C)CCC(OC(=O)CCC(=O)O)C(C)(C)C5CCC43C)C2C1 (centres unmarked) [Example 1] | suppressed | tends to be higher | – | movement of nuclei of the cells of the lumen of the secretory duct of the sweat gland ([1]; 3 μL antiperspirant contacted first, 30 μL sweat gland-stimulating agent (100 mM pyrocarpin) after 600 seconds, FIG. 2A white circle): hardly moved; movement of nuclei of the cells of the outer periphery of the secretory duct of the sweat gland ([1]; 3 μL antiperspirant contacted first, 30 μL sweat gland-stimulating agent (100 mM pyrocarpin) after 600 seconds, FIG. 2A white triangle): hardly moved
2 | CC1(C)[C@@H](O)CC[C@]2(C)[C@H]3C(=O)C=C4[C@H]5C[C@@](C)(C(=O)O)CC[C@]5(C)CC[C@@]4(C)[C@]3(C)CC[C@@H]12 [Example 2, 18α-glycyrrhetinic acid] | – | – | hardly moved | –
3 | CC1(C)[C@@H](O)CC[C@]2(C)[C@H]3C(=O)C=C4[C@@H]5C[C@@](C)(C(=O)O)CC[C@]5(C)CC[C@@]4(C)[C@]3(C)CC[C@@H]12 [Example 3, 18β-glycyrrhetinic acid] | – | – | hardly moved | –
4 | C[C@H]1[C@H](C)CC[C@]2(C(=O)O)CC[C@]3(C)C(=CC[C@@H]4[C@@]5(C)CC[C@H](O)C(C)(C)[C@@H]5CC[C@]43C)[C@H]12 [Example 4, ursolic acid] | – | – | hardly moved | –
5 | CC1(C)CC[C@]2(C(=O)O)CC[C@]3(C)C(=CC[C@@H]4[C@@]5(C)CC[C@H](O)C(C)(C)[C@@H]5CC[C@]43C)[C@@H]2C1 [Example 5, oleanolic acid] | – | – | hardly moved | –
6 | CC1(C(=O)O)CCC2(C)CCC3(C)C(=CC(=O)C4C5(C)CCC(O)C(C)(C)C5CCC43C)C2C1 (centres unmarked) [formula (IX)] | the same tendency as the antiperspirant obtained in Example 1 | the same tendency as the antiperspirant obtained in Example 1 | – | –
7 | CC1(C(=O)O)CCC2(C)CCC3(C)C(=CC(=O)C4C5(C)CCC(OC6OC(C(=O)O)C(O)C(O)C6OC6OC(C(=O)O)C(O)C(O)C6O)C(C)(C)C5CCC43C)C2C1 (centres unmarked) [formula (X)] | the same tendency as the antiperspirant obtained in Example 1 | the same tendency as the antiperspirant obtained in Example 1 | – | –
8 | α-amylin [Example 6] | – | – | hardly moved | –
9 | β-amylin [Example 7] | – | – | hardly moved | –
